Test results: ChEMBL document CHEMBL1131677, “Synthesis and biological evaluation of substituted 4-(OBz)phenylalanine derivatives as novel N-type calcium channel blockers” (Bioorg Med Chem Lett, 1999)
Each block holds one compound with its values, some of them ahead of it.

Molecular target: Voltage-dependent N-type calcium channel subunit alpha-1B (Homo sapiens, UniProt Q00975)
Experiment: In vitro N-type [Ca2+] channel blocking potency in IMR-32 human neuroblastoma cells
Format: functional, cell-based

Chain of Voltage-dependent N-type calcium channel subunit alpha-1B (Q00975 whole entry): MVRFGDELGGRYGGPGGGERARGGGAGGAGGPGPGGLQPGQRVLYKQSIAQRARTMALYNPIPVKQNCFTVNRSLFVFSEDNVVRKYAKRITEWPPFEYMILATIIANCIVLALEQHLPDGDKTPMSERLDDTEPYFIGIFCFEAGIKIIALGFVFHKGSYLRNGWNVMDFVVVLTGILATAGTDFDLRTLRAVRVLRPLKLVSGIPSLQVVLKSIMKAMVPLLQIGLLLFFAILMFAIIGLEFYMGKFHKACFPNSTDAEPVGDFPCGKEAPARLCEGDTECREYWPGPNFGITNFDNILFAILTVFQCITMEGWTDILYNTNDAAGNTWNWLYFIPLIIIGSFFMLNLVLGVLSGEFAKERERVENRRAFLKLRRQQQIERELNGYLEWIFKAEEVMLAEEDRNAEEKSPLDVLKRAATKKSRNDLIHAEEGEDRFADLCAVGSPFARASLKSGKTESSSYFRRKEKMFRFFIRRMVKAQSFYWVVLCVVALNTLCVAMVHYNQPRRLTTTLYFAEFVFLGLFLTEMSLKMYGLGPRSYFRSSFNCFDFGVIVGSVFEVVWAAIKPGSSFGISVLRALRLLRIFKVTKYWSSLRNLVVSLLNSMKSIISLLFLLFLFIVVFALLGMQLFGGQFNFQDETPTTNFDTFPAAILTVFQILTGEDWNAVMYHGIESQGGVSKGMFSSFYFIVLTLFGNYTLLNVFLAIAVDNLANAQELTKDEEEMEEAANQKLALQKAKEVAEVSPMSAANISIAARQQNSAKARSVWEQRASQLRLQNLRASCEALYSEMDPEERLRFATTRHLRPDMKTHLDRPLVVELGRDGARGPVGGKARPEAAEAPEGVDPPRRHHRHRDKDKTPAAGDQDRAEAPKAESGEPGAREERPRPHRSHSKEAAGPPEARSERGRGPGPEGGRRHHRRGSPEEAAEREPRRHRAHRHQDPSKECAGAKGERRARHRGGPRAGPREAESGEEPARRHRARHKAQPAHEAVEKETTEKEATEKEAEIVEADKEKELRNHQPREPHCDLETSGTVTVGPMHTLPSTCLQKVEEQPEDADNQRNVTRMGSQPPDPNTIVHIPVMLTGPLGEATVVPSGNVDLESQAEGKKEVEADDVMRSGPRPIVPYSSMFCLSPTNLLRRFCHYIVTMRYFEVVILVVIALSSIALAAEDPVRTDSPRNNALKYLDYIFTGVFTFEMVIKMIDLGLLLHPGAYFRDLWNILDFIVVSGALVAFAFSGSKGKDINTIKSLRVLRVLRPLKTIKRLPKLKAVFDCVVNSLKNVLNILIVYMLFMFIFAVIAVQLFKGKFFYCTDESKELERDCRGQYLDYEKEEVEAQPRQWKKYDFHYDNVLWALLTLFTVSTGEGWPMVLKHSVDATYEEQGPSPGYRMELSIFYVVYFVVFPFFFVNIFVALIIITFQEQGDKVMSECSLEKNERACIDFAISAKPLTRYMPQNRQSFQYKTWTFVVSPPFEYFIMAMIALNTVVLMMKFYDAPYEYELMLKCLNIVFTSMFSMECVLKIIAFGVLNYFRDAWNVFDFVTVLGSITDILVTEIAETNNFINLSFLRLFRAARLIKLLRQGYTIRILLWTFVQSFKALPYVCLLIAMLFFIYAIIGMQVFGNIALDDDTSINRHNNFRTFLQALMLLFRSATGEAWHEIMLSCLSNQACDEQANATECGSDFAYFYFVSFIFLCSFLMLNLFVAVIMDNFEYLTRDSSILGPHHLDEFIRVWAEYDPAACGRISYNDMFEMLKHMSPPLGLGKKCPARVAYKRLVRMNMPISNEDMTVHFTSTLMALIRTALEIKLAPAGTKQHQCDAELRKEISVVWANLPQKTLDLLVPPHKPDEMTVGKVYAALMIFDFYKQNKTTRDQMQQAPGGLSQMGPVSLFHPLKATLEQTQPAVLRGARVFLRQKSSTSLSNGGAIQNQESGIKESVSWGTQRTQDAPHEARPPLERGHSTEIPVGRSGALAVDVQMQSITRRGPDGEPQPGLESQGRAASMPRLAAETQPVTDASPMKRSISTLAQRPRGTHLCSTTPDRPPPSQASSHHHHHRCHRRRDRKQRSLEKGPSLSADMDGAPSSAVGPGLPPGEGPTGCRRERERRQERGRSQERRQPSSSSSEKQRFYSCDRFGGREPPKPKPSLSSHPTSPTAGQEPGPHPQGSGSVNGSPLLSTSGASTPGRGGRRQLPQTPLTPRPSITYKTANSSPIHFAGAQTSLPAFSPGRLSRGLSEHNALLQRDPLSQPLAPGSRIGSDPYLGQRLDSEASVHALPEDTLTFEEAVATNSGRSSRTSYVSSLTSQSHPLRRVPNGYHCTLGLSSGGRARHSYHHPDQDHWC

Structure (SMILES): CC(C)CCN1CCN(C)CC1C(=O)N[C@@H](Cc1ccc(OC(=O)c2ccccc2)cc1)C(=O)OC(C)(C)C (some centres not stated)
- IC50: 1000 nM

Structure (SMILES): CC(C)CCN1CCC(C(=O)N[C@@H](Cc2ccc(OC(=O)c3ccccc3)cc2)C(=O)OC(C)(C)C)CC1
- IC50: 1500 nM

Structure (SMILES): CC(C)CCN1CCCC(C)C1C(=O)N[C@@H](Cc1ccc(OC(=O)c2ccccc2)cc1)C(=O)OC(C)(C)C (some centres not stated)
- IC50: 1100 nM

Structure (SMILES): CC(C)CCN(C)CC(=O)N[C@@H](Cc1ccc(OC(=O)c2ccccc2)cc1)C(=O)NC(C)(C)C
- IC50: 1600 nM

Structure (SMILES): CC(C)CCN1CCCCC1C(=O)N[C@@H](Cc1ccc(OC(=O)c2ccccc2)cc1)C(=O)OC(C)(C)C (some centres not stated)
- IC50: 1000 nM

Now those with a lower IC50, led by results:

- IC50: 830 nM
Structure (SMILES): CC(C)CCN(C)[C@H](C(=O)N[C@@H](Cc1ccc(OC(=O)c2ccccc2)cc1)C(=O)NC(C)(C)C)C(C)C

- IC50: 780 nM
Structure (SMILES): CC(C)CCN1CCC(C)CC1C(=O)N[C@@H](Cc1ccc(OC(=O)c2ccccc2)cc1)C(=O)OC(C)(C)C (some centres not stated)

- IC50: 490 nM
Structure (SMILES): CC(C)CCN1CCC(C(C)C)CC1C(=O)N[C@@H](Cc1ccc(OC(=O)c2ccccc2)cc1)C(=O)OC(C)(C)C (some centres not stated)

- IC50: 400 nM
Structure (SMILES): CC(C)CCN[C@@H](CC(C)C)C(=O)N[C@@H](Cc1ccc(OC(=O)c2ccccc2)cc1)C(=O)OC(C)(C)C

- IC50: 370 nM
Structure (SMILES): CC(C)CCN(C)[C@H](CC(C)C)C(=O)N[C@@H](Cc1ccc(OC(=O)c2ccccc2)cc1)C(=O)NC(C)(C)C

- IC50: 320 nM
Structure (SMILES): CC(C)CCN1C(C)CCCC1C(=O)N[C@@H](Cc1ccc(OC(=O)c2ccccc2)cc1)C(=O)OC(C)(C)C (some centres not stated)

- IC50: 300 nM
Structure (SMILES): CC(C)CCN[C@@H](CC(C)C)C(=O)N[C@@H](Cc1ccc(OC(=O)c2ccccc2)cc1)C(=O)NC(C)(C)C
